In US20080200403A1, “9A-Carbamoyl and Thiocarbamoyl Azalides with Anti-Inflammatory Activity” (GLAXOSMITHKLINE, priority 2005, published 2008):
Like-named read-outs stand apart in the source and are kept apart here.

Legend:
Type in all cases: cell-based
TNF-α = test: Inhibition of TNF-α production by stimulated human peripheral blood leukocytes in vitro; conditions: PBL; for inhibition at 10 µM / inhibition at 50 µM: Homo sapiens, Leukocyte, read-out: Percentage of inhibition of TNF-α production
Protocol: (§1) Test substances used in in vitro experiments were dissolved in dimethyl sulfoxide (DMSO) (Kemika, Croatia) at concentrations of 50 mM and 10 mM, and were further diluted to final concentrations of 50 μM and 10 μM in 1 mL Dulbecco's modified Eagle medium (DMEM) supplemented with 1% heat inactivated fetal bovine serum (FBS), 1% L-glutamine, 50 U/ml penicillin, 50 μg/ml streptomycin and 2.5 μg/mL Fungizone (amphotericin B). Media and all media supplements were purchased from Gibco, Australia, except the FBS was purchased from Sigma, USA.
(§2) Peripheral blood leukocytes (PBL) were obtained from venous blood of healthy volunteers by sedimentation on 2% dextran T-500 (Amersham Biosciences, USA) and subsequent centrifugations of leukocyte rich plasma.
(§3) Peripheral blood leukocytes (PBL), isolated as described above, were seeded in a 48-well plate at a concentration of 3 to 5×10^6 cell per well in culture medium consisting of RPMI 1640 medium (Institute of Immunology, Croatia) supplemented with 10% heat-inactivated fetal calf serum (FCS, Biowhittaker, USA), 100 U/ml penicillin (Gibco, Australia), 100 μg/ml streptomycin (Gibco, Australia) and 2 mM L-glutamine (Gibco, Australia), and preincubated with the test compounds for 2 h at 37° C., in an atmosphere of 5% CO2, and 90% humidity. Then, stimuli (Sigma, USA) were added to a final concentration of 2 μg/mL lipopolysaccharide (LPS), 1 μg/mL phorbol 12-myristate 13-acetate (PMA) or 120 μg/mL zymosan. Samples were incubated overnight under conditions described above. At the end of incubation, the supernatants were transferred to eppendorf tubes and centrifuged for 10 min at 1500×g. Concentrations of human TNF-α, IL-1β, IL-6 and IL-8 were determined in cell supernatants by sandwich ELISA, using capture and detection antibodies (R&D Systems, Minneapolis, Minn.) according to the manufacturer's recommendations.
(§4) Inhibition (as percentage) was calculated using the following formula: % inhibition=(1−concentration of cytokines in sample/concentration of cytokines in positive control)×100. The positive control refers to stimulated samples, not treated with substances.

IL-1α = test: Inhibition of IL-1 production by stimulated human peripheral blood leukocytes in vitro; conditions: PBL; for inhibition at 10 µM / inhibition at 50 µM: Homo sapiens, Leukocyte, read-out: Percentage of inhibition of IL-1α production
IL-6 = test: Inhibition of IL-6 production by stimulated human peripheral blood leukocytes in vitro; conditions: PBL; for inhibition at 10 µM / inhibition at 50 µM: Homo sapiens, Leukocyte, read-out: Percentage of inhibition of IL-6 production
Protocol: as §1, §2, §3, §4

IL-8 = test: Inhibition of IL-8 production by stimulated human peripheral blood leukocytes in vitro; conditions: PBL; for inhibition at 10 µM / inhibition at 50 µM: Homo sapiens, Leukocyte, read-out: Percentage of inhibition of IL-8 production
Protocol: as §1, §2, §3, §4

[1] = test system: human peripheral blood mononuclear cells (PBMC); test: Human T-cell proliferation in vitro (3H-thymidine incorporation); conditions: for inhibition at 10 µM / inhibition at 50 µM: Homo sapiens, PBMC, read-out: Percentage of inhibition of proliferation of stimulated PBMC
Protocol: Influence of substances at two different concentrations (50 μM and 10 μM) on cell proliferation of human peripheral blood mononuclear cells (PBMC) was assessed.
Heparinized peripheral blood was obtained from healthy donors, and PBMC were isolated by Histopaque 1077 (Sigma, USA) density centrifugation at 400×g for 30 minutes. 5×10^4 cells/well were cultured for 3 days in the RPMI medium as described above, in the presence (positive control) or absence (negative control) of stimulators [PHA (2.5 μg/mL) (Sigma, USA), or both PMA (10 ng/mL) (Sigma, USA) and ionomycin (500 ng/mL) (Calbiochem, USA)], and in the presence of the test compounds, at 37° C. in an atmosphere of 5% CO2 and 90% humidity. The cells were pulsed with 1 μCi of ^3H-thymidine (Amersham, USA) per well during the last 18 h of the culture, and were harvested on the 96-well filter (Packard Bioscience, USA) using a multiple cell harvester (Packard, USA). The incorporation of ^3H-thymidine in activated cells were measured using TopCount NXT (Packard, USA).
Inhibition (as percentage) was calculated using the following formula: % inhibition=(1−(^3H)thymidine incorporation expressed in counts per minute (cpm) in sample/(^3H)thymidine incorporation expressed in cpm in positive control)×100
where positive control refers to stimulated samples, not treated with substances.

human granulocytes = test: Oxidative burst inhibition assay on granulocytes (luminol); conditions: for % inhibition of Oxidative burst PMA: PMA stimulated granulocytes; for % inhibition of Oxidative burst Zymosan: Zymosan stimulated granulocytes
Protocol: Granulocytes were obtained from heparinized whole blood using density gradient centrifugation. Erythrocytes were sedimented on 3% dextran T-500 (Amersham Pharmacia Biotech AB, Uppsala, Sweden). Leukocytes were centrifuged on Ficoll (Amersham Pharmacia Biotech AB, Uppsala, Sweden) for 35 min at 600 g at 20° C. The pellet of granulocytes was cleared from remaining erythrocytes by a brief hypotonic lysis.
The effect of compounds on oxidative burst was investigated in vitro with oxidative burst assay in human granulocytes, isolated as described above. Assay was done in 96 well plate. Blood was obtained from healthy volunteers (Transfusion Center, Croatia) and human granulocytes were isolated by dextran sedimentation and ficoll extraction method, as described above. In each well 50000 isolated granulocytes were suspended in 100 μL of DMEM. Final concentrations of the tested compounds were 50 and 12.5 μM. Than, 50 μL of luminol (c=0.25 mg/mL) was added. Luminol as a detector of oxidative burst react with superoxide and light is produced as one of the reaction products. Subsequently, 50 μL of stimuli, phorbol-12-myristate acetate (PMA) (c=33 ng/mL) or Zymosan (c=120 μg/mL), were added.

[2] = zymosan stimulated, compound 10 μM
[3] = zymosan stimulated, compound 50 μM
[4] = PMA + ionomycin stimulated, compound 10 μM
[5] = PMA + ionomycin stimulated, compound 50 μM

SMILES: CCC1OC(=O)C(C)C(OC2CC(C)(OC)C(O)C(C)O2)C(C)C(OC2OC(C)CC(N(C)C)C2O)C(C)(O)CC(C)CN(C(=S)Nc2ccc(Cl)cc2)C(C)C(O)C1(C)O (stereo not drawn) [Compound 2]
- Percentage of inhibition of TNF-α production (TNF-α; LPS stimulated, compound 10 μM): 37%
- Percentage of inhibition of TNF-α production (TNF-α; LPS stimulated, compound 50 μM): 100%
- Percentage of inhibition of TNF-α production (TNF-α; PMA stimulated, compound 10 μM): 60%
- Percentage of inhibition of TNF-α production (TNF-α; PMA stimulated, compound 50 μM): 99%
- Percentage of inhibition of TNF-α production (TNF-α; [2]): 78%
- Percentage of inhibition of TNF-α production (TNF-α; [3]): 98%
- Percentage of inhibition of IL-1α production (IL-1α; LPS stimulated, compound 10 μM): 77%
- Percentage of inhibition of IL-1α production (IL-1α; LPS stimulated, compound 50 μM): 98%
- Percentage of inhibition of IL-1α production (IL-1α; PMA stimulated, compound 10 μM): 18%
- Percentage of inhibition of IL-1α production (IL-1α; PMA stimulated, compound 50 μM): 97%
- Percentage of inhibition of IL-1α production (IL-1α; [2]): 92%
- Percentage of inhibition of IL-1α production (IL-1α; [3]): 98%
- Percentage of inhibition of IL-6 production (IL-6; LPS stimulated, compound 10 μM): 75%
- Percentage of inhibition of IL-6 production (IL-6; LPS stimulated, compound 50 μM): 100%
- Percentage of inhibition of IL-6 production (IL-6; PMA stimulated, compound 10 μM): 49%
- Percentage of inhibition of IL-6 production (IL-6; PMA stimulated, compound 50 μM): 100%
- Percentage of inhibition of IL-6 production (IL-6; [2]): 90%
- Percentage of inhibition of IL-6 production (IL-6; [3]): 100%
- Percentage of inhibition of IL-8 production (IL-8; LPS stimulated, compound 10 μM): 79%
- Percentage of inhibition of IL-8 production (IL-8; LPS stimulated, compound 50 μM): 88%
- Percentage of inhibition of IL-8 production (IL-8; PMA stimulated, compound 10 μM): 27%
- Percentage of inhibition of IL-8 production (IL-8; PMA stimulated, compound 50 μM): 58%
- Percentage of inhibition of IL-8 production (IL-8; [2]): 61%
- Percentage of inhibition of IL-8 production (IL-8; [3]): 51%
- Percentage of inhibition of proliferation of stimulated PBMC ([1]; PHA stimulated, compound 10 μM): 6%
- Percentage of inhibition of proliferation of stimulated PBMC ([1]; PHA stimulated, compound 50 μM): 97%
- Percentage of inhibition of proliferation of stimulated PBMC [1, 4]: 35%
- Percentage of inhibition of proliferation of stimulated PBMC [1, 5]: 99%
- % inhibition of Oxidative burst PMA (human granulocytes; compound 12.5 μM): 19%
- % inhibition of Oxidative burst PMA (human granulocytes; compound 50 μM): 82%
- % inhibition of Oxidative burst Zymosan (human granulocytes; compound 12.5 μM): 24%
- % inhibition of Oxidative burst Zymosan (human granulocytes; compound 50 μM): 98%

SMILES: CC[C@H]1OC(=O)[C@H](C)[C@@H](O)[C@H](C)[C@@H](O[C@@H]2O[C@H](C)C[C@H](N(C)C)[C@H]2O)[C@](C)(O)C[C@@H](C)CN(C(=O)Nc2cccc(C(F)(F)F)c2)[C@H](C)[C@@H](O)[C@]1(C)O [Compound 13]
- inhibition at 10 µM (TNF-α; LPS stimulated, compound 10 μM): 0%
- inhibition at 50 µM (TNF-α; LPS stimulated, compound 50 μM): 0%
- inhibition at 10 µM (TNF-α; PMA stimulated, compound 10 μM): 0%
- inhibition at 50 µM (TNF-α; PMA stimulated, compound 50 μM): 0%
- inhibition at 10 µM (TNF-α; [2]): 0%
- inhibition at 50 µM (TNF-α; [3]): 52%
- inhibition at 10 µM (IL-1α; LPS stimulated, compound 10 μM): 0%
- inhibition at 50 µM (IL-1α; LPS stimulated, compound 50 μM): 52%
- inhibition at 10 µM (IL-1α; PMA stimulated, compound 10 μM): 0%
- inhibition at 50 µM (IL-1α; PMA stimulated, compound 50 μM): 32%
- inhibition at 10 µM (IL-1α; [2]): 34%
- inhibition at 50 µM (IL-1α; [3]): 89%
- inhibition at 10 µM (IL-6; LPS stimulated, compound 10 μM): 0%
- inhibition at 50 µM (IL-6; LPS stimulated, compound 50 μM): 0%
- inhibition at 10 µM (IL-6; PMA stimulated, compound 10 μM): 84%
- inhibition at 50 µM (IL-6; PMA stimulated, compound 50 μM): 100%
- inhibition at 10 µM (IL-6; [2]): 52%
- inhibition at 50 µM (IL-6; [3]): 94%
- inhibition at 10 µM (IL-8; LPS stimulated, compound 10 μM): 0%
- inhibition at 50 µM (IL-8; LPS stimulated, compound 50 μM): 0%
- inhibition at 10 µM (IL-8; PMA stimulated, compound 10 μM): 0%
- inhibition at 50 µM (IL-8; PMA stimulated, compound 50 μM): 25%
- inhibition at 10 µM (IL-8; [2]): 62%
- inhibition at 50 µM (IL-8; [3]): 0%
- inhibition at 10 µM ([1]; PHA stimulated, compound 10 μM): 11%
- inhibition at 50 µM ([1]; PHA stimulated, compound 50 μM): 42%
- inhibition at 10 µM [1, 4]: 21%
- inhibition at 50 µM [1, 5]: 43%
